System: Fischer-344 Ratten
Test: Tele-Stereo-EEG in freely moving rats (field potentials from frontal cortex, hippocampus, striatum, reticular formation; power density spectra)
Type: in vivo, Ratte
Conditions: rat
Description: Die Veränderungen der EEG-Frequenzen nach intraperitonealer Gabe von Salzlösung (Kontrolle) bzw. einer Dosis von Hesperidin (80 und 160 mg/kg Körpergewicht) wurden bestimmt.
Die Untersuchungen wurden analog der durch W. Dimpfel beschriebenen Methode (Dimpfel W Preclinical data base of pharmaco-specific rat EEG fingerprints (Tele-Stereo-EEG). Eur J Med Res (2003) 8: 199-207) folgendermaßen durchgeführt:
Zwölf männlichen erwachsenen Fischer-344 Ratten (Tag-Nacht konvertiert) wurden im Alter von 6 Monaten 4 bipolar konzentrische Elektroden zusammen mit einem Mikrostecker auf einer gemeinsamen Basisplatte implantiert. Der Stecker diente der Aufnahme eines 4-Kanal-Senders zur telemetrischen Übertragung der aus frontalem Kortex, Hippokampus, Striatum und Formation Reticularis abgeleiteten Feldpotentiale. Die Signale wurden auf einem Computer System (Software "EEG-Analyse", Betriebssystem OS Science, Laborrechner "LabTeam" der Firma MediSyst, Linden, DE) in Echtzeit einer Fast-Fourier-Transformation unterworfen und die Leistungsdichtespektren jeweils über 15 bis 60 Minuten gemittelt. Die Unterteilung der Spektren in 6 verschiedene Frequenzbereiche erlaubte die Erfassung pharmako-spezifischer Veränderungen in Bezug auf die jeweils vor Applikation gemessenen Vorwerte innerhalb dieser Frequenzbänder.
Zum Applikationsprotokoll der Substanzen: die Substanzen wurden i.p. 45 Minuten nach Beginn der Messungen (Vorwert) injiziert. Fünf Minuten später wurden die Messungen wieder gestartet, mindestens über die nächsten 5 Stunden kontinuierlich analysiert und in 60-minütigen Perioden zusammengefaßt. Die Testsubstanz wurde in einer Dosierung von 80 und 160 mg/kg appliziert. Die experimentelle Serie wurde mit der Injektion von Salzlösung (Kontrolle), die zu keiner auffälligen Änderung führte, begonnen.
Der statistische Vergleich der Versuche zu den Ergebnissen, die nach Gabe von Salzlösung gemessen wurde, erfolgte mit Hilfe einer multivariaten Analyse nach Ahrens und Läuter (siehe H. Ahrens, J. Läuter "Mehrdimensionale Varianzanalyse" (1974), Akademie Verlag, Berlin) auf der Basis der Veränderungen innerhalb der einzelnen Frequenzbänder in allen Hirnregionen als Variablen.

COc1ccc([C@@H]2CC(=O)c3c(O)cc(O[C@@H]4O[C@H](CO[C@@H]5O[C@@H](C)[C@H](O)[C@@H](O)[C@H]5O)[C@@H](O)[C@H](O)[C@H]4O)cc3O2)cc1O [Hesperidin, Hesperetin 7-rhamnoglucosid]
zeitabhängige Veränderungen der EEG-Frequenzen (delta, theta und alpha2 Frequenzen) (80 or 160 mg/kg Hesperidin i.p., Fig. 3a and 3b): nehmen statistisch signifikant und dauerhaft ab
correlation of the EEG pattern with patterns of drugs for neurodegenerative diseases, pain and stroke (discriminant analysis) (i.p. single dose, compared with Tacrin, Piracetam, Memantine, Metamizol, Amphetamin, no correlation with patterns of drugs for other indications): korrelieren in signifikanter Weise
delta, theta und alpha2 Frequenzen (i.p., 160 mg/kg, first hour after administration): Abfall
duration for which the pattern (decrease of delta, theta, alpha2) was observed (i.p., 160 mg/kg, whole test period): 5 Stunden
Veränderungen der Leistungsdichte in den einzelen Hirnregionen (i.p., 80 and 160 mg/kg, versus pre-drug baseline): dosis-abhängig zu deutlichen Veränderungen
Muster der EEG-Frequenzänderungen (i.p., after 80 and 160 mg/kg, versus saline): stabiles, statistisch signifikantes Muster
